Ki data for 14 compounds are collected here from ChEMBL document CHEMBL1129841, “Peptide based inhibitors of interleukin-8: structural simplification and enhanced potency” (Bioorg Med Chem Lett, 1997).

pKi: −log10 of the molar value. *1 amine or outer side, *2 acyl side, *3 side chain or, on linkers, in order; H or OH if unused. Where a SMILES comes first, the peptide text is derived from it. [ ]: non-standard residue; d: D form. ξ: configuration not given here. 2(aminomethyl)benzoyl = O=C(c1ccccc1CN[*:1])[*:2]; X1 = C[C@@H](CCCC(=O)[*:2])N[*:1]; X2 = C[C@H](CCCN[*:1])C(=O)[*:2]; ξThr(3R) = C[C@@H](O)C(N)C(=O)O; 12Ado = NCCCCCCCCCCCC(=O)O; 3Amb = NCc1cccc(C(=O)O)c1; 4Amb = NCc1ccc(C(=O)O)cc1; Aun = NCCCCCCCCCCC(=O)O; Aoc = NCCCCCCCC(=O)O; Ahx = NCCCCCC(=O)O; ξP = O=C(O)C1CCCN1; Ava = NCCCCC(=O)O; GABA = NCCCC(=O)O

This experiment has as its target T1, Interleukin-8 (Homo sapiens, UniProt P10145).
T1 sequence (P10145 whole entry): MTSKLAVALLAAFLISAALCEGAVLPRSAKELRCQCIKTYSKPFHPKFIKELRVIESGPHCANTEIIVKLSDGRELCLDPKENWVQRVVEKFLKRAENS
Briefly: Inhibition of Interleukin-8 (IL-8).

For the compound `CSCC[C@H](NC(C)=O)C(=O)N[C@@H](Cc1c[nH]c2ccccc12)C(=O)N[C@@H](CC(=O)O)C(=O)N[C@@H](Cc1ccccc1)C(=O)N[C@@H](CC(=O)O)C(=O)N[C@@H](CC(=O)O)C(=O)NCCCC(=O)N[C@@H](CCSC)C(=O)N1CCC[C@H]1C(=O)N1CCC[C@H]1C(=O)N[C@@H](C)C(=O)N[C@@H](CC(=O)O)C(=O)N[C@@H](CCC(=O)O)C(=O)N[C@@H](CC(=O)O)C(=O)N[C@@H](Cc1ccc(O)cc1)C(=O)N[C@@H](CO)C(=O)N1CCC[C@H]1C(N)=O` (Ac-MWDFDD[GABA]MPPADEDYSP-NH2), the pKi (in general, the negative decadic logarithm of the Ki, by convention in mol/L) was 4.85.

The compound `CSCC[C@H](NC(C)=O)C(=O)N[C@@H](Cc1c[nH]c2ccccc12)C(=O)N[C@@H](CC(=O)O)C(=O)N[C@@H](Cc1ccccc1)C(=O)N[C@@H](CC(=O)O)C(=O)N[C@@H](CC(=O)O)C(=O)NCCCCCC(=O)N[C@@H](CCSC)C(=O)N1CCC[C@H]1C(=O)N1CCC[C@H]1C(=O)N[C@@H](C)C(=O)N[C@@H](CC(=O)O)C(=O)N[C@@H](CCC(=O)O)C(=O)N[C@@H](CC(=O)O)C(=O)N[C@@H](Cc1ccc(O)cc1)C(=O)N[C@@H](CO)C(=O)N1CCC[C@H]1C(N)=O` (Ac-MWDFDD[Ahx]MPPADEDYSP-NH2) showed a negative logarithm of the Ki (pKi) of 5.15.

`CSCC[C@H](NC(C)=O)C(=O)N[C@@H](Cc1c[nH]c2ccccc12)C(=O)N[C@@H](CC(=O)O)C(=O)N[C@@H](Cc1ccccc1)C(=O)N[C@@H](CC(=O)O)C(=O)N[C@@H](CC(=O)O)C(=O)N[C@@H](CC(C)C)C(=O)N[C@@H](CC(N)=O)C(=O)N[C@@H](Cc1ccccc1)C(=O)N[C@@H](C)CCCC(=O)N[C@@H](CCSC)C(=O)N1CCC[C@H]1C(=O)N1CCC[C@H]1C(=O)N[C@@H](C)C(=O)N[C@@H](CC(=O)O)C(=O)N[C@@H](CCC(=O)O)C(=O)N[C@@H](CC(=O)O)C(=O)N[C@@H](Cc1ccc(O)cc1)C(=O)N[C@@H](CO)C(=O)N1CCC[C@H]1C(N)=O` (Ac-MWDFDDLNF[X1]MPPADEDYSP-NH2) showed a negative-log Ki (pKi) of 5.00.

The compound `CSCC[C@H](NC(C)=O)C(=O)N[C@@H](Cc1c[nH]c2ccccc12)C(=O)N[C@@H](CC(=O)O)C(=O)N[C@@H](Cc1ccccc1)C(=O)N[C@@H](CC(=O)O)C(=O)N[C@@H](CC(=O)O)C(=O)N[C@@H](CC(C)C)C(=O)N[C@@H](CC(N)=O)C(=O)N[C@@H](Cc1ccccc1)C(=O)NCCCCC(=O)N[C@@H](CCSC)C(=O)N1CCC[C@H]1C(=O)N1CCC[C@H]1C(=O)N[C@@H](C)C(=O)N[C@@H](CC(=O)O)C(=O)N[C@@H](CCC(=O)O)C(=O)N[C@@H](CC(=O)O)C(=O)N[C@@H](Cc1ccc(O)cc1)C(=O)N[C@@H](CO)C(=O)N1CCC[C@H]1C(N)=O` (Ac-MWDFDDLNF[Ava]MPPADEDYSP-NH2) showed a pKi of 4.89.

The compound `CSCC[C@H](NC(C)=O)C(=O)N[C@@H](Cc1c[nH]c2ccccc12)C(=O)N[C@@H](CC(=O)O)C(=O)N[C@@H](Cc1ccccc1)C(=O)N[C@@H](CC(=O)O)C(=O)N[C@@H](CC(=O)O)C(=O)N[C@@H](CC(C)C)C(=O)N[C@@H](CC(N)=O)C(=O)N[C@@H](Cc1ccccc1)C(=O)NCc1ccc(C(=O)N[C@@H](CCSC)C(=O)N2CCC[C@H]2C(=O)N2CCC[C@H]2C(=O)N[C@@H](C)C(=O)N[C@@H](CC(=O)O)C(=O)N[C@@H](CCC(=O)O)C(=O)N[C@@H](CC(=O)O)C(=O)N[C@@H](Cc2ccc(O)cc2)C(=O)N[C@@H](CO)C(=O)N2CCC[C@H]2C(N)=O)cc1` (Ac-MWDFDDLNF[4Amb]MPPADEDYSP-NH2) showed a pKi of 5.64.

`CSCC[C@H](NC(C)=O)C(=O)N[C@@H](Cc1c[nH]c2ccccc12)C(=O)N[C@@H](CC(=O)O)C(=O)N[C@@H](Cc1ccccc1)C(=O)N[C@@H](CC(=O)O)C(=O)N[C@@H](CC(=O)O)C(=O)NCCCCCCCCCCC(=O)N[C@@H](CCSC)C(=O)N1CCC[C@H]1C(=O)N1CCC[C@H]1C(=O)N[C@@H](C)C(=O)N[C@@H](CC(=O)O)C(=O)N[C@@H](CCC(=O)O)C(=O)N[C@@H](CC(=O)O)C(=O)N[C@@H](Cc1ccc(O)cc1)C(=O)N[C@@H](CO)C(=O)N1CCC[C@H]1C(N)=O` (Ac-MWDFDD[Aun]MPPADEDYSP-NH2) showed a pKi of 5.22.

In turn, `CSCC[C@H](NC(C)=O)C(=O)N[C@@H](Cc1c[nH]c2ccccc12)C(=O)N[C@@H](CC(=O)O)C(=O)N[C@@H](Cc1ccccc1)C(=O)N[C@@H](CC(=O)O)C(=O)N[C@@H](CC(=O)O)C(=O)NCCCCCCCCCCCC(=O)N[C@@H](CCSC)C(=O)N1CCC[C@H]1C(=O)N1CCC[C@H]1C(=O)N[C@@H](C)C(=O)N[C@@H](CC(=O)O)C(=O)N[C@@H](CCC(=O)O)C(=O)N[C@@H](CC(=O)O)C(=O)N[C@@H](Cc1ccc(O)cc1)C(=O)N[C@@H](CO)C(=O)N1CCC[C@H]1C(N)=O` (Ac-MWDFDD[12Ado]MPPADEDYSP-NH2) had a negative-log Ki (pKi) of 5.40.

For the compound `CSCC[C@H](NC(C)=O)C(=O)N[C@@H](Cc1c[nH]c2ccccc12)C(=O)N[C@@H](CC(=O)O)C(=O)N[C@@H](Cc1ccccc1)C(=O)N[C@@H](CC(=O)O)C(=O)N[C@@H](CC(=O)O)C(=O)N[C@@H](CC(C)C)C(=O)N[C@@H](CC(N)=O)C(=O)N[C@@H](Cc1ccccc1)C(=O)NCc1cccc(C(=O)N[C@@H](CCSC)C(=O)N2CCC[C@H]2C(=O)N2CCC[C@H]2C(=O)N[C@@H](C)C(=O)N[C@@H](CC(=O)O)C(=O)N[C@@H](CCC(=O)O)C(=O)N[C@@H](CC(=O)O)C(=O)N[C@@H](Cc2ccc(O)cc2)C(=O)N[C@@H](CO)C(=O)N2CCC[C@H]2C(N)=O)c1` (Ac-MWDFDDLNF[3Amb]MPPADEDYSP-NH2), the pKi is 5.40.

`CSCC[C@H](NC(C)=O)C(=O)N[C@@H](Cc1c[nH]c2ccccc12)C(=O)N[C@@H](CC(=O)O)C(=O)N[C@@H](Cc1ccccc1)C(=O)N[C@@H](CC(=O)O)C(=O)N[C@@H](CC(=O)O)C(=O)NCCCCCCCC(=O)N[C@@H](CCSC)C(=O)N1CCC[C@H]1C(=O)N1CCC[C@H]1C(=O)N[C@@H](C)C(=O)N[C@@H](CC(=O)O)C(=O)N[C@@H](CCC(=O)O)C(=O)N[C@@H](CC(=O)O)C(=O)N[C@@H](Cc1ccc(O)cc1)C(=O)N[C@@H](CO)C(=O)N1CCC[C@H]1C(N)=O` (Ac-MWDFDD[Aoc]MPPADEDYSP-NH2) had a pKi of 4.92.

Consider Ac-MWDFDDLNFTGMPPADEDYSP-NH2, for which the negative-log Ki (pKi) was 4.89.

For `CSCC[C@H](NC(C)=O)C(=O)N[C@@H](Cc1c[nH]c2ccccc12)C(=O)N[C@@H](CC(=O)O)C(=O)N[C@@H](Cc1ccccc1)C(=O)N[C@@H](CC(=O)O)C(=O)N[C@@H](CC(=O)O)C(=O)N[C@@H](CC(C)C)C(=O)N[C@@H](CC(N)=O)C(=O)N[C@@H](Cc1ccccc1)C(=O)NCc1ccccc1C(=O)N[C@@H](CCSC)C(=O)N1CCC[C@H]1C(=O)N1CCC[C@H]1C(=O)N[C@@H](C)C(=O)N[C@@H](CC(=O)O)C(=O)N[C@@H](CCC(=O)O)C(=O)N[C@@H](CC(=O)O)C(=O)N[C@@H](Cc1ccc(O)cc1)C(=O)N[C@@H](CO)C(=O)N1CCCC1C(N)=O` (some centres undefined) (Ac-MWDFDDLNF[2(aminomethyl)benzoyl]MPPADEDYS[ξP]-NH2), the pKi was 5.03.

Regarding Ac-MWDFDDGMPPADEDYSP-NH2, the negative-log Ki (pKi) was 4.51.

As to `CSCC[C@H](NC(C)=O)C(=O)N[C@@H](Cc1c[nH]c2ccccc12)C(=O)N[C@@H](CC(=O)O)C(=O)N[C@@H](Cc1ccccc1)C(=O)N[C@@H](CC(=O)O)C(=O)N[C@@H](CC(=O)O)C(=O)N[C@@H](CC(C)C)C(=O)N[C@@H](CC(N)=O)C(=O)N[C@@H](Cc1ccccc1)C(=O)NC(C(=O)NCCC[C@@H](C)C(=O)N1CCC[C@H]1C(=O)N1CCC[C@H]1C(=O)N[C@@H](C)C(=O)N[C@@H](CC(=O)O)C(=O)N[C@@H](CCC(=O)O)C(=O)N[C@@H](CC(=O)O)C(=O)N[C@@H](Cc1ccc(O)cc1)C(=O)N[C@@H](CO)C(=O)N1CCC[C@H]1C(N)=O)[C@@H](C)O` (stereo partly drawn) (Ac-MWDFDDLNF[ξThr(3R)][X2]PPADEDYSP-NH2), the pKi was 3.42.

`CSCC[C@H](NC(C)=O)C(=O)N[C@@H](Cc1c[nH]c2ccccc12)C(=O)N[C@@H](CC(=O)O)C(=O)N[C@@H](Cc1ccccc1)C(=O)N[C@@H](CC(=O)O)C(=O)N[C@@H](CC(=O)O)C(=O)N[C@@H](CC(C)C)C(=O)N[C@@H](CC(N)=O)C(=O)N[C@@H](Cc1ccccc1)C(=O)NC(C(=O)NCCCCC(=O)N1CCC[C@H]1C(=O)N1CCC[C@H]1C(=O)N[C@@H](C)C(=O)N[C@@H](CC(=O)O)C(=O)N[C@@H](CCC(=O)O)C(=O)N[C@@H](CC(=O)O)C(=O)N[C@@H](Cc1ccc(O)cc1)C(=O)N[C@@H](CO)C(=O)N1CCC[C@H]1C(N)=O)[C@@H](C)O` (stereo partly drawn) (Ac-MWDFDDLNF[ξThr(3R)][Ava]PPADEDYSP-NH2) showed a negative logarithm of the Ki (pKi) of 3.97.
